Data on one molecule can be found in US20170166870A1, “HUMAN HEPATIC 3D CO-CULTURE MODEL AND USES THEREOF” (Vrije Universiteit Brussel, priority 2014, published 2017).

Values joined by “and” are separate entries in the source; they are usually repeats but may differ in a detail not shown here. Identical values can stand only once. Like-named read-outs stand apart in the source and are kept apart here.

In assay [1] the test system is 3D HepaRG/HSC co-culture. Put plainly: APAP toxicity assay, cell viability by ATP (Cell titer Glo). The format is cell-based, human. Particulars: Homo sapiens, 3D HepaRG/HSC, current study, 0% DMSO, read-out: APAP EC50 values (±stdev). The method, then:
APAP toxicity assay was performed in 3D HepaRG/co-culture as well as in 3D HepaRG monoculture. […] For some experiments the culture medium was supplemented with 2.5 mM valproic acid (VPA sodium salt, Sigma-Aldrich) or with cytokine mixture (Raicevic et al.,2012)-interleukin (IL)-1β 25 ng/mL (Peprotech, Rocky Hill, N.J., USA), interferon (IFN)-γ 10^3 U/mL, tumor necrosis factor (TNF)-a 50 ng/mL, and IFN-α 3·10^3 U/mL (all from Prospec, Inc., East Brunswick, N.J., USA). For the recovery assay, at the end of APAP incubation, cells were washed using HepaRG culture 0% DMSO medium and kept in the same medium for 3 more days.
(§1) At the end of the incubation period, 5 spheroids per condition were pooled and lysed for RNA analyses, while the remaining spheroids per condition were lysed individually for viability analysis using the Cell titer Glo kit (Promega) for ATP measurements following the instructions of the manufacturer.
On the technique in general: In ATP-based viability assays light output follows the ATP content of the culture.

The subject of assay [2] is 3D HepaRG/HSC co-culture. Kind of assay: Single and repeated exposure, cell viability (% ATP), serum-free medium. The assay is classed as cell-based, human. The note with it: Homo sapiens, HepaRG, serum-free medium. Here is the method:
Culture medium. Day 0 cells were resuspended in HepaRG thawing medium and from day 1 to 21 cells were kept in the HepaRG culture medium 0% DMSO, until day 8. For the repeated versus single compound exposure assays, on day 8, the HepaRG culture medium 0% DMSO was replaced by the Serum-free HepaRG maintenance medium described in Klein et. al. 2013 (HepaRG Induction/Toxicity medium, DMSO 0.5% (v/v), 2 μg/ml of epidermal growth factor and 10 μg/ml of hepatocyte growth factor) and kept in this medium until the end of culture.
Single and repeated exposure. For the single and repeated compound exposure cell spheroids (3D HepaRG/HSC, 3D HepaRG and 3D HSC) were exposed respectively on day 20 for 24 h or every second day from day 8 to day 21 in serum-free medium with no additional solvent. Cells were exposed to a range of 8 concentrations between 0.5 and 80 mM for APAP single-dose, 0.125 and 40 mM for APAP repeated-dose, 0.3 and 500 μM Allyl Alcohol (AA, Sigma-Aldrich), 1.9 and 1000 μM Methotrexate (MTX, Pfizer, NY, USA). For the recovery assay, on day 21, cells were washed using serum-free medium and kept for 3 extra days.
Cell viability assay was performed by measuring ATP production upon individual spheroid exposure to the different concentrations of the test compound. Cell spheroids were lysed individually for viability analysis using the Cell titer Glo kit (Promega) following the instructions of the manufacturer. Luminescence values were converted into percentage of ATP by comparison with controls and converted into dose-response curves using Prism 5 software.

Assay [3] has as its system 3D HepaRG/HSC co-culture. Kind of assay: mRNA expression of HSC activation markers (qPCR) after APAP incubation. The format is cell-based, human. The note with it: additional 3 days in culture upon APAP washout. The method, then:
(§2) APAP toxicity assay was performed in 3D HepaRG/co-culture as well as in 3D HepaRG monoculture. For 24 h, starting at day 20, cells were exposed to a range of APAP concentrations between 0.5 and 80 mM, keeping cells with the solvent (0.1% DMSO) as a control. For some experiments the culture medium was supplemented with 2.5 mM valproic acid (VPA sodium salt, Sigma-Aldrich) or with cytokine mixture (Raicevic et al.,2012)-interleukin (IL)-1β 25 ng/mL (Peprotech, Rocky Hill, N.J., USA), interferon (IFN)-γ 10^3 U/mL, tumor necrosis factor (TNF)-a 50 ng/mL, and IFN-α 3·10^3 U/mL (all from Prospec, Inc., East Brunswick, N.J., USA). For the recovery assay, at the end of APAP incubation, cells were washed using HepaRG culture 0% DMSO medium and kept in the same medium for 3 more days.
as §1
(§3) Total RNA was extracted from cells using the ReliaPrep RNA Cell Miniprep System (Promega, Madison, Wis.). Reverse-transcription using the Revert Aid Kit (ThermoFisher Scientific, St. Leon-Rot, Germany) allowed conversion of RNA to cDNA. The RT reaction was performed at 25° C. for ten minutes followed by 30 minutes at 50° C. For quantitative real-time polymerase chain reaction (qPCR), GoTaq QPCR Master Mix with BRYTE green (Promega, Madison, Wis.) was used, subjected to qPCR in a 7500 real time PCR system and analysed using System SDS software v2.0.5 (Applied Biosystems), using GAPDH for normalisation.
(In qPCR the cycle at which signal appears reflects the starting amount.)

For a further assay, the system named is 3D HepaRG mono-culture. The description is as above. The assay is classed as cell-based, human. The note with it: 20 mM APAP, 24h, Assays 1-3. The method, then: as §2, §1, §3
For another assay, the system named is 3D HepaRG. Particulars: read-out: APAP EC50 values (±stdev), cited from earlier work.
The next assay has as its system 3D HSC mono-culture. Kind of assay: mRNA expression of HSC activation markers (qPCR) after APAP incubation. The assay is classed as cell-based, human. The note with it: 20 mM APAP, 24h, Assays 1-3.

Turning to `CC(=O)Nc1ccc(O)cc1` [APAP, Acetaminophen], the concentration giving a half-maximal response (EC50) (commonly the midpoint of the concentration-response curve) with 3D HepaRG/HSC co-culture [1] (144 h, Day 6/7) was 10 ± 1.09 mM; in the assay on 3D HepaRG/HSC co-culture [1] (504 h, Day 21/22), 8 ± 4.17 mM; with 3D HepaRG/HSC co-culture [2] (repeated exposure, day 8 to day 21) it was 2.25 ± 0.35 mM; in the assay with 3D HepaRG/HSC co-culture [2] (single exposure, 24 h on day 20) it was 10.4 ± 2.3 mM; in the assay with 3D HepaRG (Day 6/7, Gunness et al. 2013, 2% DMSO) it was 2.7 ± 7.14 mM; in the assay with 3D HepaRG (Day 21/22, Gunness et al. 2013, 2% DMSO), 10.1 ± 9.9 mM. Besides, in the assay with 3D HepaRG/HSC co-culture [3], the “HSC activation markers after washout” value is on record as “decrease of the HSC activation markers”. Besides, in the assay on 3D HepaRG mono-culture, the “Col1a1 mRNA fold increase” value is 4.80 +/− 4.83 fold and 3.01 +/− 0.06 fold. Further, the “aSMA mRNA fold increase” value in the assay on 3D HepaRG mono-culture is 0.69 +/− 0.09 fold and 1.06 +/− 0.13 fold. Moreover, in the assay with 3D HSC mono-culture, the “Loxl2 mRNA fold increase” value is 1.13 +/− 0.05 fold and 0.70 +/− 0.23 fold and 0.85 +/− 0.86 fold.
